# Source: patent EP0218400A1, “Assay methods for chemotherapeutic agents” (DAMON BIOTECH, INC., priority 1985, dated 1987)
# Tests used:
# [1] = tested on: MOLT-4 human lymphoma cells; assay: In vivo sensitivity of encapsulated MOLT-4 cells in nude mice, NCI schedule; details: Adriamycin 6 mg/kg, 15 days after transplantation
# Method: (§1) In the experiments that follow, the drugs and other agents tested were administered to the host animal by injection at the various times called for in the protocol being tested. At various periods after treatment, the mice were killed by cervical dislocation. The peritoneal cavity of each mouse was washed with PBS or medium and floating microcapsules were aspirated using a large bore plastic Pasteur pipette. Microcapsules were transferred to 15 ml tubes and washed 3 to 4 times with PBS to remove host peritoneal cells. The washed microcapsules were aspirated into 1 ml serological pipettes, allowed to sediment, and the volume of packed microcapsules was determined. Microcapsules were then transferred to a glas dounce homogenizer (7 ml volume) and disrupted with 3 strokes of an A-tolerance plumger. Cells suspensions were filtered through nylon mesh to remove the disrupted membranes. The suspensions containing tumor cells were centrifuged and the pellet was resuspended in 0.25 to 0.5 ml of complete medium. After mixing equal volumes of cell suspension and trypan blue, viable cell counts were determined using a hemocytometer.
# (§2) The number of tumor cells per 1 ml of packed microcapsules was determined as follows: a = ? where b = total number of tumor cells in the suspension, and c = total volume of microcapsules used for the preparation of this suspension.
# (§3) By comparing the number of tumor cells in 1 ml of microcapsules derived from non-treated and drug-treated mice, the percent inhibition of tumor cell growth was calculated: [formula] where ac = number of tumor cells from the non-treated control microcapsules, and ae = number of tumor cells from the drug treated microcapsules.
# In the next experiment various drugs were administered in vivo according to schedules and doses typically used for screening antitumor effects of the drugs at the National Cancer Institute, Developmental Therapeutics program.
# MOLT-4 human lymphoma cells were encapsulated and transplanted into peritoneum of nude mice. Doses of various drugs were applied i.v. at 1, 5 and 9 days after tumor cell transplantation.
# [2] = tested on: Human T cell lymphoma (MOLT-4) cells; assay: In vitro drug pretreatment of encapsulated cells, then growth in the peritoneal cavity of mice; assay type: in vivo; details: for No. of tumor cells per capsule: then 7 days i.p. in C57BL/6 mice
# Method: The encapsulated tumors are preferably incubated at 37° C in medium for 1 to 2 hours. A 25 percent (v/v) suspension can then be prepared (preferably without bovine serum). The suspension can be inoculated in the peritoneal cavity of the host animal (i.e., with a 16 gauge needle).
# as §1, §2, §3
# Human T cell lymphoma (MOLT-4) cells were encapsulated according to the procedures described above and incubated in vitro in RPMI I640 medium supplemented with 10 percent fetal calf serum, glutamine and antibiotics for one hour of 37°C. During incubation they were exposed to various concentrations of 1,3-B (2-chloroethyl)-1-nitrosourea (BCNU), 5-fluorouracil (5-FU) and adriamycin. The microcapsules were then washed and implanted into the peritoneal cavity (i.p.) of C57BL/6 mice (Animal Production Area NCI-Frederick Cancer Research Facility) using #18-14 needles. After seven days the mice were sacrificed and their peritoneal cavities were washed with PBS and aspirated to collect the microcapsules in a Pasteur pipette. The microcapsules were washed several times from the host peritoneal cells. The microcapsules from the individual mice were counted by transferring them into wells of a 96 well microplate. Using an inverted microscope, the numbers of microcapsules in each well were counted. Each well was washed out and microcapsules were transferred into the glass homogenizer.
# Microcapsules were then disrupted, and the suspension was filtered, centrifugated and reconstituted with PBS. The concentration and total number of cells were counted using a hemocytometer.
# MOLT-4 lymphoma cells = assay: In vivo inhibition of encapsulated Molt-4 lymphoma growth in C57BL/6 mice; design: species or system human
# Method: as §1, §2, §3
# MOLT-4 lymphoma cells were also used in an in vivo assay. As before, the MOLT-4 cells were encapsulated and transplanted i.p. into C57BL/6 mice. On day 1 following the transplantation of the encapsulated cells, the mice were treated i.v. intravenous (i.v.) with BCNU, adriamycin or cyclophosphamide (CY). This approach allowed the testing of cyclophosphamide (CY) which is inefficient in vitro because it must be metabolized to obtain an active cytotoxic derivative. Ten days after transplantation, the encapsulated cells were retrieved and the tumor cells contained therein were counted. […]
# [3] = tested on: human colon adenocarcinoma (HT-29) cells; assay: In vivo growth of encapsulated HT-29 cells in C57BL/6 mice; details: for inhibition at 20 mg/kg: Mus musculus; for No. of cells per capsule / Total No. of tumor cells: 4 days
# Method: as §1, §2, §3
# A second human cancer cell line was also used to further analyze in vivo effects of different drugs on the growth of tumors. Encapsulated human colon adenocarcinoma (HT-29) cells were again transplanted into C57BL/6 mice and various drugs were administered after 3 days either by intravenous or by intraperitoneal injection. Animals were sacrificed after 4 days and number of cells per capsule were counted to calculate inhibition rates for the various treatment procedures. […] In fact, 5-FU is a preferred chemotherapeutic agent for patients with gastrointestinal malignancies.
# P388 Resistant Cells = assay: In vivo growth of encapsulated adriamycin-resistant P388 lymphoma cells in nude mice
# Method: as §1, §2, §3
# (§4) Since drug-resistance is one of the most important causes of failure in chemotherapy, it is crucial that a predictive assay be able to distinguish between effective and non-effective drugs for particular tumors. […] One day later the mice received by i.v. administration Adriamycin (6 mg/kg), Vinblastin (1 mg/kg) or Cyclophosphamide (100 mg/kg). Five days after administration some of the mice were sacrificed, the microcapsules were recovered and the numbers of tumor cells inside the capsules were determined. The remaining mice received a second administration and the microcapsules were recovered from the remaining mice 3 days afterwards. The results are shown in Table 7 and correlate well with the known characteristics of P388 cell line and its variant.
# LOX Melanoma cells = details: i.v.; Adriamycin 6, BCNU 20, CY 100, 5-Fu 60 mg/kg; survival during 3 months of observation; nude mice; cited from earlier work
# Original P388 cells = assay: In vivo growth of encapsulated original P388 lymphoma cells in nude mice
# Method: as §1, §2, §3, §4
# [4] = tested on: human lung carcinoma A549 cells; assay: In vivo susceptibility of encapsulated A549 cells; details: i.v. days 2, 5, 9; for No. of tumor cells per 1 ml of capsules / percent Inhibition: Adriamycin 6, BCNU 20, CY 100 mg/kg
# Method: as §1, §2, §3
# The sensitivity of human lung carcinoma A549 cells to the drugs was assessed 12 and 14 days after transplantation of encapsulated tumor cells. The treatments were applied i.v. 2, 5 and 9 days after microcapsule transplantation (Table 5).
# [5] = i.v. on day 1, Adriamycin 10 mg/kg, BCNU 100 mg/kg, CY 200 mg/kg, capsules retrieved ten days after transplantation
# [6] = i.p. 3 days after transplantation, 5-Fu 150 mg/kg, CY 250 mg/kg, Adriamycin 20 mg/kg
# [7] = i.v. 20 mg/kg 3 days after transplantation
# [8] = 5 + 3 days after treatment (3 days after second administration), Adriamycin 6, Vinblastin 1, Cyclophosphamide 100 mg/kg i.v.
# [9] = 5 days after treatment, i.v. one day after inoculation, Adriamycin 6, Vinblastin 1, Cyclophosphamide 100 mg/kg
smiles,measurement,setting,value
COc1cccc2c1C(=O)c1c(O)c3c(c(O)c1C2=O)C[C@@](O)(C(=O)CO)C[C@@H]3O[C@H]1C[C@H](N)[C@H](O)[C@H](C)O1 [Adriamycin],inhibition of tumor cell proliferation (in words),"[1]; 5-FU 60 mg/kg i.v. days 1, 5, 9",dramatic inhibition of tumor cell proliferation
same,inhibition at 6 mg/kg,"[1]; Mus musculus, MOLT-4, iv, 360 h, i.v. days 1, 5, 9, Cyclophosphamide 100 mg/kg, 5-Fu 60 mg/kg, nude mice",95%
same,No of viable tumor cells per 1 ml of capsules,"[1]; i.v. days 1, 5, 9, Cyclophosphamide 100 mg/kg, 5-Fu 60 mg/kg, nude mice",2.7 x 10^6
same,No. of tumor cells per capsule,[2]; 2.5 µg/ml in vitro for one hour,2 x 10^3
same,No. of tumor cells per capsule,[2]; 10 µg/ml in vitro for one hour,10
same,inhibition at 2.5 µg/mL,"[2]; Mus musculus, MOLT-4, ip",60%
same,inhibition at 10 µg/mL,"[2]; Mus musculus, MOLT-4, ip",100%
same,inhibition at 10 mg/kg,"MOLT-4 lymphoma cells; Mus musculus, MOLT-4, iv, i.v. on day 1, Adriamycin 10 mg/kg, BCNU 100 mg/kg, CY 200 mg/kg, capsules retrieved ten days after transplantation",91.3%
same,reduction of the number of viable tumor cells in the capsules (in words),"MOLT-4 lymphoma cells; i.v. on day 1, ten days after transplantation",more effective than BCNU
same,No. of cells per capsule,MOLT-4 lymphoma cells; [5],237
same,Total No. of tumor cells,MOLT-4 lymphoma cells; [5],8 x 10^4
same,inhibition at 20 mg/kg,"[3]; HT-29, ip",45%
same,inhibition at 20 mg/kg,"[3]; HT-29, iv",50%
same,No. of cells per capsule,[3]; [6],1.1 x 10^4
same,Total No. of tumor cells,[3]; [6],5.8 x 10^5
same,No. of cells per capsule,[3]; [7],1 x 10^4
same,Total No. of tumor cells,[3]; [7],1.2 x 10^6
same,No. cells/ml,P388 Resistant Cells; [8],32 x 10^6
same,No. cells/ml,P388 Resistant Cells; [9],18 x 10^6
same,inhibiting the growth of the drug-resistant variant (in words),"P388 Resistant Cells; Adriamycin 6 mg/kg, Vinblastin 1 mg/kg i.v.",Neither Adriamycin nor Vinblastin in the doses administered was effective
same,% survived mice transplanted with nonencapsulated tumor cells,LOX Melanoma cells,33%
same,% Inhibition,Original P388 cells; [8],92%
same,No. cells/ml,Original P388 cells; [8],4 x 10^6
same,% Inhibition,Original P388 cells; [9],64%
same,No. cells/ml,Original P388 cells; [9],8 x 10^6
same,No. of tumor cells per 1 ml of capsules,[4]; 12 days after transplantation,9.0 x 10^5
same,percent Inhibition,[4]; 12 days after transplantation,85%
same,No. of tumor cells per 1 ml of capsules,[4]; 14 days after transplantation,13.5 x 10^5
same,percent Inhibition,[4]; 14 days after transplantation,84%
same,reduction of the numbers of tumor cells (in words),[4],more efficient in this respect than CY
